Results on two substances are retold here after PMC13376213, “Systematic discovery of motif-based interactions of the auxiliary domains of USP family deubiquitinases” (Nature Communications, 2026).

For one test, the system named is FLAG-USP20. Kind of test: IP-MS of FLAG-USP20 and variants vs empty vector. The class given is cell-based, human. The note with it: IP-MS, FLAG-USP20-ΔUBP vs EV; comparison bh_2 Sample_Limma_ImpMedInt_USP20_UBP_domain/EV.
The next test concerns FLAG-USP33. Briefly: IP-MS of FLAG-USP33 and variants vs empty vector. In kind it is cell-based, human. As to the method: For transfection, 1x10^6 HEK293 cells were seeded in 10 cm dishes with DMEM, 10% FBS, 1% L-G (without antibiotic) medium, incubated at 37 °C, with 5 % CO2 for 24 h. Cells were transfected with a transfection mix containing […] of Opti-MEM (Thermo Fisher Scientific), 20 μL of PEI stock (1 mg/mL) and […] of the desired cDNA. For co-transfection, 2.5 μg of DNA of each plasmid was used. The mix was vortexed for 15 s and incubated at room temperature for 15–20 min. The transfection mix was added to the dish and gently mixed. Plates were incubated at 37 °C for 36–48 h before harvesting. For USP33 constructs, 5 μM Bortezomib (proteasome inhibitor) was added 4 hours before harvesting the cells.
FLAG fusion proteins were immunoprecipitated from HEK293 cells transfected with plasmids encoding the protein of interest using the anti-FLAG M2 affinity gel from Sigma-Aldrich. Cell pellets were lysed with 100–200 μL/per dish lysis buffer (Pierce RIPA buffer, 1X protease inhibitor (Roche), 50 unit/μL of Benzonase Nuclease) rotating at 4 °C for 30–45 min. […] The cell lysate was clarified by centrifugation at 17,000 x g, at 4 °C for 12 min, and the supernatant was transferred to a clean, pre-chilled low-binding Eppendorf tube. […] The IP samples were centrifuged at 6500 x g at 4 °C for 30 s. The supernatant containing the unbound proteins was transferred to a clean tube. The resin was washed three times with 500 μL of TBS, centrifuged at 6500 x g at 4 °C for 30 s. The bound FLAG fusion protein was eluted with 100 μL of 150 ng/μL 3X FLAG peptide (Sigma) in TBS and incubated in the cold room for 1 h or overnight. The tube was centrifuged at 6500 x g at 4 °C for 30 s; the eluted proteins were transferred to a clean tube. The eluted proteins were prepared for analysis by western blot or Mass Spectrometry.
Immunoprecipitation (IP) was carried out as described above; four technical replicates of each IP condition were performed, and the empty vector was used as a negative control. The eluted protein was processed following the Strap-micro protocol (Protifi). The IP elution containing 1–100 μg protein was 1:1 mixed with 2X lysis buffer (10% SDS, 100 mM TEAB pH 8.5). […] Samples were vortexed, mixed with 165 μL of 100 mM TEAB in 90% methanol, and passed through an S-Trap micro column at 4000 g for 30 s to trap the proteins. The column was washed with 150 μL of 100 mM TEAB in 90% methanol (at 4,000 x g for 30 seconds) three times. The S-Trap column was centrifuged again and transferred to a clean 2 mL tube for digestion with 20 μL of digestion buffer (1 μg trypsin per 10 μg sample in 50 mM TEAB), at 37 °C overnight in a thermomixer without shaking. The digested peptides were eluted with […] of 50 mM TEAB in water, […] of 0.2 % formic acid in water, and […] of 50 % acetonitrile in water, centrifuging at 4000 x g for 1 min each time. The three elutions were pooled in a low-binding tube, placed on dry ice until frozen, dried in a SpeedVac vacuum (Thermo Scientific), and proceeded with the LCMS analysis.
Eluted peptides were resuspended in water supplemented with 0.015% dodecyl maltoside and 0.1% formic acid and were injected on a Vanquish Neo UHPLC System operating in trap and elute mode coupled to an Orbitrap Astral Mass Spectrometer (Thermo Fisher Scientific). […] Eluted peptides were analyzed using data-independent acquisition mode on the mass spectrometer.
Peptides were searched against the Uniprot Swissprot Human database (released on 02/01/2023) supplemented with the USP20 and USP33 mutants using DiaNN (v1.9.0)[62] operating in library-free mode. Data filtering and statistical analysis were carried out in Python (v3.9.0) using the packages pandas, numpy, sklearn, scipy, rpy2, Plotnine, and Plotly and R (v4.4.3) using the package limma.
Protein groups identified with a single peptide or quantified in fewer than three replicates in at least 1 condition were filtered out. […]

A further test concerns the target T1, USP20 zf-UBP domain (Homo sapiens, UniProt Q9Y2K6).
T1 construct: USP20_UBP; Q9Y2K6; zf-UBP; 99; 6xHis-GST (N, cleaved yes); made in house; host or cells: Escherichia coli BL21-Gold (DE3)
Briefly: Peptide SPOT array, USP20 zf-UBP. The class given is binding. The note with it: array of 120 peptides probed with GST-tagged zf-UBP domains of USP20 and USP33.

T1 sequence (Q9Y2K6 4-99): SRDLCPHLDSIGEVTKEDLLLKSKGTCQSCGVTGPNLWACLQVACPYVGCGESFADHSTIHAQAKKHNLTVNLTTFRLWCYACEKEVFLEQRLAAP
Experimental for FLAG-USP20: For transfection, 1x10^6 HEK293 cells were seeded in 10 cm dishes with DMEM, 10% FBS, 1% L-G (without antibiotic) medium, incubated at 37 °C, with 5 % CO2 for 24 h. Cells were transfected with a transfection mix containing 970 mL of Opti-MEM (Thermo Fisher Scientific), 20 μL of PEI stock (1 mg/mL) and 5 mg of the desired cDNA. For co-transfection, 2.5 μg of DNA of each plasmid was used. The mix was vortexed for 15 s and incubated at room temperature for 15–20 min. The transfection mix was added to the dish and gently mixed. Plates were incubated at 37 °C for 36–48 h before harvesting. For USP33 constructs, 5 μM Bortezomib (proteasome inhibitor) was added 4 hours before harvesting the cells.
FLAG fusion proteins were immunoprecipitated from HEK293 cells transfected with plasmids encoding the protein of interest using the anti-FLAG M2 affinity gel from Sigma-Aldrich. […] The cell lysate was clarified by centrifugation at 17,000 x g, at 4 °C for 12 min, and the supernatant was transferred to a clean, pre-chilled low-binding Eppendorf tube. […] The IP samples were centrifuged at 6500 x g at 4 °C for 30 s. The supernatant containing the unbound proteins was transferred to a clean tube. The resin was washed three times with 500 μL of TBS, centrifuged at 6500 x g at 4 °C for 30 s. The bound FLAG fusion protein was eluted with 100 μL of 150 ng/μL 3X FLAG peptide (Sigma) in TBS and incubated in the cold room for 1 h or overnight. The tube was centrifuged at 6500 x g at 4 °C for 30 s; the eluted proteins were transferred to a clean tube. The eluted proteins were prepared for analysis by western blot or Mass Spectrometry.
Immunoprecipitation (IP) was carried out as described above; four technical replicates of each IP condition were performed, and the empty vector was used as a negative control. The eluted protein was processed following the Strap-micro protocol (Protifi). The IP elution containing 1–100 μg protein was 1:1 mixed with 2X lysis buffer (10% SDS, 100 mM TEAB pH 8.5). […] Samples were vortexed, mixed with 165 μL of 100 mM TEAB in 90% methanol, and passed through an S-Trap micro column at 4000 g for 30 s to trap the proteins. The column was washed with 150 μL of 100 mM TEAB in 90% methanol (at 4,000 x g for 30 seconds) three times. The S-Trap column was centrifuged again and transferred to a clean 2 mL tube for digestion with 20 μL of digestion buffer (1 μg trypsin per 10 μg sample in 50 mM TEAB), at 37 °C overnight in a thermomixer without shaking. The digested peptides were eluted with 40 mL of 50 mM TEAB in water, 40 mL of 0.2 % formic acid in water, and 40 mL of 50 % acetonitrile in water, centrifuging at 4000 x g for 1 min each time. The three elutions were pooled in a low-binding tube, placed on dry ice until frozen, dried in a SpeedVac vacuum (Thermo Scientific), and proceeded with the LCMS analysis.
Protein groups identified with a single peptide or quantified in fewer than three replicates in at least 1 condition were filtered out. Protein group intensities were median normalized and missing values were imputed using a Gaussian distribution centered on the median with a downshift of 1.8 and width of 0.3 (relative to the standard deviation).
Experimental for USP20 zf-UBP domain: Proteins were expressed in Escherichia coli (E.coli) BL21-Gold (DE3) bacteria. The cDNAs encoding N-terminal 6-histidine-glutathione S-transferase tagged (6xHis-GST), 6xHis-tagged or GST-tagged protein domains in pETM33, pETM11, pGEX6P1 expression vectors respectively, were obtained from Genescript or kindly provided by MRC-PPU (Suppl. Data 1) The bacteria were transformed with the plasmid and grew at 37 °C in 2YT (5 g/L NaCl, 16 g/L tryptone and 10 g/L yeast extract) supplemented with Kanamycin (30 μg/mL) until reaching an OD600 of 0.7. Protein expression was induced with 0.3 mM isopropyl β-D-1 thiogalactopyranoside (IPTG) for 18 h at 18 °C while shaking. For zinc-finger domains, 50 μM of ZnSO4 was added during expression. […] For fluorescence polarization experiments, the proteins were not eluted from the beads, and the 6xHis-GST tag was cleaved overnight on GSH Sepharose beads at 4 °C while shaking with PreScission Protease in cleavage buffer (50 mM Tris pH 7.5, 150 mM NaCl, 1 mM DTT). […] The purity and size of the proteins were analyzed by SDS-PAGE electrophoresis.
Peptides were synthesized on cellulose membranes with standard Fluoroenylmethylox-ycarbonyl (Fmoc) chemistry using a Multipep automated synthesizer at INTAVIS (Tübingen, Germany) or ordered from JPT (PepSpots). […] The images were analyzed in Fiji (ImageJ2 version 2.9.0).

Turning to ESYT2, the log2_FC with FLAG-USP20 stood at 1.764; in the test on FLAG-USP33 (IP-MS, FLAG-USP33 UBP mutant vs EV, comparison USP33_E86K_D90R/EV, Limma), 1.582; in the test on FLAG-USP33 (IP-MS, FLAG-USP33 vs EV, comparison USP33_wt/EV, Limma), 1.824; in the test with FLAG-USP33 (Table S7c USP33 MS_and_motif, bait USP33), 1.824.

For TQNLEDREVLNGVQTE [PARD3B], the “binding in peptide SPOT array, USP20 versus USP33 zf-UBP” value on USP20 zf-UBP domain is “only bound to USP20”.
